Assays:
MDM2 = target: T1, MDM2 (Homo sapiens, UniProt Q00987); test: Inhibition test of MDM2-P53 (GST-MDM2, Biotin-P53, Anti-GST-Tb, SA-XL665); format: binding
T1 construct: made in house
In short: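 HTRF-type assay using 4 nM GST-MDM2 (final), Biotin-P53, SA-XL665 and anti-GST-Tb in PBS with 0.1% BSA, 5 mM DTT and 1 mM AEBSF. Compounds in 5-fold serial dilutions over twelve points; incubation 90 min at 25° C with shaking before plate-reader read-out.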

[1] = tested on: human osteosarcoma cell line SJSA-1; test: Inhibition of proliferation of human osteosarcoma cell line SJSA-1 (DAPI staining, In Cell Analyzer); details: Homo sapiens, SJSA-1, 72 h, read-out: IC50 (nM), inhibitory activity on proliferation of human osteosarcoma cell line SJSA-1, SJSA-1, incubated 72 h

T1 sequence (Q00987 whole entry): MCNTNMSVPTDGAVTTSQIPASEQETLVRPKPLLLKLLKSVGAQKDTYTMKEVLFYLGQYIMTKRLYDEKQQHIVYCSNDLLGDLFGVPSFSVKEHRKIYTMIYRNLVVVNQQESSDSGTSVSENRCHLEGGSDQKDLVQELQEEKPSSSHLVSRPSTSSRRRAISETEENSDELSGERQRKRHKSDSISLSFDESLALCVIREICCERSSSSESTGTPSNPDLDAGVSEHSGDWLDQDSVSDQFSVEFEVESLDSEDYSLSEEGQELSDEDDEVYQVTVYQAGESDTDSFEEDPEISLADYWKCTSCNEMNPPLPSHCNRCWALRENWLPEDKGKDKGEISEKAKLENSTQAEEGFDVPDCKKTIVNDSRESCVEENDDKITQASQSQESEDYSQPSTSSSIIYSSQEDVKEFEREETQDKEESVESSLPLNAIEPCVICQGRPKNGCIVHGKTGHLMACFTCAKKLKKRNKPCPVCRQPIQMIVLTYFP

Compound	IC50 (MDM2) [nM]	IC50 [1] [nM]
COc1cccc(F)c1-c1nc2c(n1C(C)C)[C@@]1(C(=O)Nc3cc(Cl)ccc31)N(c1cc(Cl)ccc1C)C2=O [Example S-57, (S)-6-chloro-5′-(5-chloro-2-methylphenyl)-2′-(2-fluoro-6-methoxyphenyl)-3′-isopropyl-3′H-spiro[dihydroindole-3,4′-pyrrolo[3,4-d]imidazole]-2,6′(5′H)-dione]	3.04	11.8
COc1cc(Cl)cc(N2C(=O)c3nc(-c4cnc(OC)nc4OC)n(C(C)C)c3[C@@]23C(=O)Nc2cc(Cl)ccc23)c1 [Example S-58, (S)-6-chloro-5′-(3-chloro-5-methoxyphenyl)-2′-(2,4-dimethoxypyrimidin-5-yl)-3′-isopropyl-3′H-spiro[dihydroindole-3,4′-pyrrolo[3,4-d]imidazole]-2,6′(5′H)-dione]	11.4	50.8
COc1ccc(C)cc1-c1nc2c(n1C(C)C)[C@@]1(C(=O)Nc3cc(Cl)ccc31)N(c1cc(Cl)ccc1C)C2=O [Example S-62, (S)-6-chloro-5′-(5-chloro-2-methylphenyl)-3′-isopropyl-2′-(2-methoxy-5-methylphenyl)-3′H-spiro[dihydroindole-3,4′-pyrrolo[3,4-d]imidazole]-2,6′(5′H)-dione]	1.61	10.5
COc1ccc(N2C(=O)c3nc(-c4ccccc4OC)n(C(C)C)c3[C@@]23C(=O)Nc2cc(Cl)ccc23)cc1Cl [Example S-63, (S)-6-chloro-5′-(3-chloro-4-methoxyphenyl)-3′-isopropyl-2′-(2-methoxyphenyl)-3′H-spiro[dihydroindole-3,4′-pyrrolo[3,4-d]imidazole]-2,6′(5′H)-dione]	1.16	77.6
COc1ccc(-c2nc3c(n2C(C)C)[C@@]2(C(=O)Nc4cc(Cl)ccc42)N(c2cc(Cl)ccc2C)C3=O)cc1 [Example S-64, (S)-6-chloro-5′-(5-chloro-2-methylphenyl)-3′-isopropyl-2′-(4-methoxyphenyl)-3′H-spiro[dihydroindole-3,4′-pyrrolo[3,4-d]imidazole]-2,6′(5′H)-dione]	11.8	726
COc1cc(N)ccc1-c1nc2c(n1C(C)C)[C@@]1(C(=O)Nc3cc(Cl)ccc31)N(c1cc(Cl)ccc1F)C2=O [Example S-66, (S)-2′-(4-amino-2-methoxyphenyl)-6-chloro-5′-(5-chloro-2-fluorophenyl)-3′-isopropyl-3′H-spiro[dihydroindole-3,4′-pyrrolo[3,4-d]imidazole]-2,6′(5′H)-dione]	1.5	39.6
COc1cc(N)ccc1-c1nc2c(n1C(C)C)[C@@]1(C(=O)Nc3cc(Cl)ccc31)N(c1cc(F)cc(Cl)c1)C2=O [Example S-67, (S)-2′-(4-amino-2-methoxyphenyl)-6-chloro-5′-(3-chloro-5-fluorophenyl)-3′-isopropyl-3′H-spiro[dihydroindole-3,4′-pyrrolo[3,4-d]imidazole]-2,6′(5′H)-dione]	1.22	20.8
COc1cc(C(=O)N(C)C)ccc1-c1nc2c(n1C(C)C)[C@@]1(C(=O)Nc3cc(Cl)ccc31)N(c1cc(Cl)ccc1C)C2=O [Example S-68, (S)-4-(6-chloro-5′-(5-chloro-2-methylphenyl)-3′-isopropyl-2,6′-dioxo-5′,6′-dihydro-3′H-spiro[dihydroindole-3,4′-pyrrolo[3,4-d]imidazole]-2′-yl)-3-methoxy-N,N-dimethylbenzamide]	2.32	1700
COc1ccc(CC(=O)N(C)C)cc1-c1nc2c(n1C(C)C)[C@@]1(C(=O)Nc3cc(Cl)ccc31)N(c1cc(Cl)ccc1C)C2=O [Example S-70, (S)-2-(3-(6-chloro-5′-(5-chloro-2-methylphenyl)-3′-isopropyl-2,6′-dioxo-5′,6′-dihydro-3′H-spiro[dihydroindole-3,4′-pyrrolo[3,4-d]imidazole]-2′-yl)-4-methoxyphenyl)-N,N-dimethylacetamide]	0.94	73.6

Source: patent US11339171B2, “MDM2 inhibitors” (Gan & Lee Pharmaceuticals, priority 2017, dated 2022)
